Laboratory results as given in patent US20110021471A1, “REDUCING Abeta42 LEVELS AND Abeta AGGREGATION” (priority 2007, published 2011).

Assays:
Aβ42 = Aβ42 (Homo sapiens, UniProt P05067); experiment: Aβ42 aggregation in vitro (native gel electrophoresis); type: biochemical; conditions: 1 μM, 37° C.
Description: FIG. 2. Aβ modulating agents can inhibit Aβ aggregation, and agents that bind Aβ amyloid can modulate Aβ42 production. […] (C) Aβ42 modulating agents inhibit naturally secreted oligomer formation. 7PA2 cells were treated with fenofibrate, FT-1, or FT-9 at 50 μM and oligomers assessed by IP Western blotting. […] (D) FT-9, an Aβ42 reducing agent, can inhibit Aβ42 aggregation in vitro.

[1] = test system: 7PA2 cells (CHO cells stably expressing human APP751 V717F); experiment: 7PA2 cells: Aβ oligomers (IP/western) and Aβ ELISA; type: cell-based, Chinese hamster
Description: FIG. 17. γ-secretase modulators decrease the production of cell derived Aβ oligomers. CHO cells stably expressing human APP751 containing the familial Alzheimer's disease mutation V717F (referred to as 7PA2 cells) were incubated for ˜16 hours in the presence of GSMs. […] Aβ40 levels were decreased to varying degrees (26-35%; Li-Cor Odyssey). (B) and (C) Because the extended incubation times necessary to reliably detect Aβ oligomers in this assay can be toxic, we carried out additional dose response studies with fenofibrate and FT-9 to verify that decreases in Aβ oligomers levels were not related to toxicity or global inhibition of Aβ production. […] (C) Increasing doses of FT-9 reduced the detection of Aβ oligomeric bands and Aβ42 decreased preferentially with decreases in Aβ40 at higher doses. […] Aβ species present in conditioned medium were detected by IP using the polyclonal anti-Aβ antibody, DW6 and subsequent immunoblotting with either 6E10 or the 42-specific, anti-Aβ antibody 21F12. Aβ levels in the samples analyzed via IP/western were also quantified via sandwich ELISA. Data presented as percent vehicle control±s.e.m., n=2.
To address the question of whether GSMs influence the concentration of secreted amyloid-β oligomers, such as those released by Chinese hamster ovary (CHO) cells expressing the APP V717F mutation (referred to as 7PA2 cells), which alter long-term potentiation and perturb the memory of learned behavior when injected into rat brain, 7PA2 cells were treated with two Aβ42-raising GSMs and a novel Aβ42-lowering GSM (FIG. 17) (Walsh et al., Nature 416:535:539 (2002); Calabrese et al., Mol. Cell. Neurosci. 35:183-193 (2007)). Fenofibrate and FT-1 increased amounts of Aβ42 whereas FT-9 lowered Aβ42, but all three GSMs decreased amounts of amyloid-β dimers and trimers. […] In contrast to increased amyloid-β oligomer formation, when CHO cells are genetically manipulated to increase Aβ42 production by co-expression of APP and FAD-linked mutant PSEN1 proteins, both Aβ42-lowering and -raising GSMs decreased oligomer formation (Xia et al., J. Biol. Chem. 272: 7977-7982 (1997)).

[2] = molecular target: amyloid-β peptides (Aβ1-40, Aβ1-36, Aβ1-28, Flag-Aβ25-36) (Homo sapiens, UniProt P05067); experiment: Photoaffinity labelling of amyloid-β peptides; type: binding
Description: (§1) FIG. 1. […] The top panel is for anti-biotin staining; the middle panel is for anti-FLAG staining; and the bottom panel is an overlay of anti-biotin (red and anti-Flag green, LiCor Odyssey imaging). (E) Same samples as in D, but analyzed using an ELISA. Following crosslinking, C100Flag and N100 Flag were captured using anti-FLAG plate, and biotin incorporation was measured using streptavidin-HRP. […] Fen-B (50 μM) was crosslinked to Aβ (10 μM). Biotin labeling was measured following capture with an anti-Aβ1-16 antibody and detection with streptavidin-HRP.
(§2) Photoaffinity labelling. All experiments used the following general protocol. Samples (recombinant or synthetic peptides, cell lysates and membrane preparations) were exposed in borosilicate test tubes to ultraviolet light (350 nm) in a Rayonet Photoreactor R100 (RPR-3500 lamps, Southern New England Ultra Violet Company) in a cold room (4° C.) for 30 minutes or as otherwise noted. Crosslinked samples were analyzed by ELISA for biotin incorporation, or analyzed directly by SDS-PAGE (Criterion-XT, Bio-Rad), or after precipitation with streptavidin ultralink plus beads (Pierce). After immunblotting, proteins were detected using chemiluminesence (ECL Plus, GEHealthcare) or near-infrared fluorescence (LiCor Odyssey). Full-length APP and APP CTFs (CTF83, CTF99) were detected with CT20, a rabbit polyclonal antibody against the C-terminus of APP. Biotin was detected with an affinity-purified rabbit polyclonal antibody (Bethyl). Cell-based screens for amyloid-β modulation. Human H4 neuroglioma cells (American Type Culture Collection, ATCC) expressing wild-type APP695 protein or CTF105 fused to secreted alkaline phosphatase which is efficiently processed to APP CTFs (CTF83, CTF99) and produce high levels of amyloid-β, were used for the cell-based screens as previously described. Cells were incubated for 5-6 hours in the presence of the various compounds in Opti-Mem culture medium containing 1% fetal bovine serum. Compounds were dissolved in dimethylsulphoxide (DMSO; 0.5% final concentration) and diluted 200-fold. Media was analyzed for various amyloid-β species (40, 42 and total) using ELISAs as described herein. The EC50 values for changes in amyloid-β species were calculated by fitting sigmoid dose-response curves using nonlinear regression in Prism (GraphPad) and are shown as values±s.e.m. Statistical analysis. Data are presented as either percentage control or mean±s.e.m. Results were analyzed using Prism (Graph Pad) with t-tests or one-way analysis of variance analyses (ANOVAs) with Dunnett's post-hoc correction for comparison of multiple samples to a control. Statistical significance is shown as P,0.05 (one asterisk), P,0.01 (two asterisks) or P,0.001 (three asterisks).
Because the putative binding region of GSMs is also found in full-length APP, labeling of both APP fragments in cells was assayed.

APP-CTF = molecular target: T1, APP-CTF (Homo sapiens, UniProt P05067); experiment: Photoaffinity labelling of APP and APP CTF in H4 cell membrane fractions and competition; type: binding; conditions: microsomal membrane fractions from H4 cells expressing wild-type APP
T1 construct: this protein was designated α-secretase-derived APP CTF (CTF83) on the basis of molecular weight; expressed in transfected cells
T1 sequence (P05067 688-770 limits assumed): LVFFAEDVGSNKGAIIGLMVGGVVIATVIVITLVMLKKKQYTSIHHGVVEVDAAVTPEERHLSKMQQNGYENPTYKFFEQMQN
Description: (§3) Photoaffinity labelling. All experiments used the following general protocol. Samples (recombinant or synthetic peptides, cell lysates and membrane preparations) were exposed in borosilicate test tubes to ultraviolet light (350 nm) in a Rayonet Photoreactor R100 (RPR-3500 lamps, Southern New England Ultra Violet Company) in a cold room (4° C.) for 30 minutes or as otherwise noted. Crosslinked samples were analyzed by ELISA for biotin incorporation, or analyzed directly by SDS-PAGE (Criterion-XT, Bio-Rad), or after precipitation with streptavidin ultralink plus beads (Pierce). After immunblotting, proteins were detected using chemiluminesence (ECL Plus, GEHealthcare) or near-infrared fluorescence (LiCor Odyssey). Full-length APP and APP CTFs (CTF83, CTF99) were detected with CT20, a rabbit polyclonal antibody against the C-terminus of APP. Biotin was detected with an affinity-purified rabbit polyclonal antibody (Bethyl). Cell-based screens for amyloid-β modulation.

γ-secretase = γ-secretase (Homo sapiens, UniProt P49768); experiment: Cell-free in vitro γ-secretase assay; type: biochemical
Description: FIG. 5. Fenofibrate-Biotin (Fen-B) is an Aβ42 raising GSM that labels cell-derived APP-CTF. (A) The effects of fenofibrate and fenofibrate-biotin (Fen-B) on Aβ production were investigated in a cell-free in vitro γ-secretase assay performed as described in the methods. […] Percent control Aβ species±s.e.m., n=2. (B) Fen-B labels APP-CTFs from cells lysates. CHAPSO solubilized membrane fractions from H4 APP-CTF-105-AP cells were irradiated (350 nm) in the presence of Fen-B (50 μM) for 30 minutes. Biotinylated material was precipitated with streptavidin overnight (SAv). Beads were washed (3×) and then incubated with XT sample buffer, heated to 95° C., run on 12% Criterion XT gels, and transferred to nitrocellulose membranes. Blots were probed for biotin (Bethyl) and APP (CT20). Excess drug (Fen-B) and unlableled APP-CTF is detected in the flow-through from the beads (unbound lane). Biotin bound to streptavdin (SAv) is detected by the anti-biotin antibody. APP-CTF-83 is pulled down in lane 2 and is reactive with anti-biotin and anti-APP (CT20).
Congo red (CR) and chrysamine G (CG), two of the most well characterized amyloid-β dyes, act as GSMs in cell-free γ-secretase assays.

[3] = molecular target: T2, γ-secretase (PSEN1, NCSTN, APH1, PEN2) (UniProt +P49768+Q96BI3+Q9NZ42); experiment: Photoaffinity labelling of purified γ-secretase preparation; type: binding; conditions: Fen-B 300 μM
T2 construct: made in house; host or cells: CHO c-30 (γ-30) cells

H4Bri-C99 (CTF-3) = test system: H4Bri-C99 (CTF-3)
Description: FIG. 6. […] Parent GSMs and biotin tagged photoactivatable GSMs were evaluated for their effects on Aβ secreted from H4Bri-C99 (CTF-3). Cells were treated with compounds for 6 hours and Aβ measured by ELISA. […] Changes in Aβ (percent control)±s.e.m., n=3.
as §2

APP(C100)-Flag = molecular target: T3, APP(C100)-Flag (Homo sapiens, UniProt P05067); experiment: Photoaffinity labelling of APP(C100)-Flag and competition; type: binding
T3 construct: APP(C100)-Flag, comprising the 99 C-terminal residues of APP plus a methionine at the N-terminus; added methionine (N)
T3 sequence (P05067 672-770 limits assumed): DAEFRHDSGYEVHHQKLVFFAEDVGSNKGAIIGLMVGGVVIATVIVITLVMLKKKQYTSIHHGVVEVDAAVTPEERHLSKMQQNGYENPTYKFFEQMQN
Description: as §1, §2
The ability of a purified, recombinant Flag-tagged γ-secretase substrate derived from APP (APP(C100)-Flag, comprising the 99 C-terminal residues of APP plus a methionine at the N-terminus) to be labeled by Fen-B and Flurbi-BpB was tested.

Notch (C100)-Flag = molecular target: T4, Notch (C100)-Flag (Mus musculus, UniProt Q01705); experiment: Photoaffinity labelling of Notch (C100)-Flag; type: binding
T4 construct: a recombinant substrate derived from mouse Notch (Notch (C100)-Flag)
T4 sequence (Q01705 1711-1809 limits assumed): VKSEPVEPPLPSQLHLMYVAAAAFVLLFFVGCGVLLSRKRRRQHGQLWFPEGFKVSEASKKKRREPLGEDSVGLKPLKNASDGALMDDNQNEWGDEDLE
Description: as §3, with “modulation. […] Media was analyzed for various amyloid-β species (40, 42 and total) using ELISAs as described herein. The EC50 values for changes in amyloid-β species were calculated by fitting sigmoid dose-response curves using nonlinear regression in Prism (GraphPad) and are shown as values±s.e.m. […]” for “modulation.”

[4] = FT-9 and FT-1 20 μM, fenofibrate 100 μM, ~16 hours

Sequence of Aβ42 (P05067 672-713 limits assumed): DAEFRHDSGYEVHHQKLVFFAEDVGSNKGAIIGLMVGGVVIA

SMILES	Aβ42 aggregation in vitro (Aβ42)	total Aβ (ELISA) in dose response studies [1]	naturally secreted oligomer formation ([1]; 50 μM, IP Western blotting)	Aβ42 production in 7PA2 cells [1, 4]	dimeric and trimeric Aβ species [1, 4]	labeling of Aβ1-28 [2]	labeling of Aβ1-36 [2]	labeling of Aβ1-40 [2]	labeling of Flag-tagged Aβ25-36 [2]	labeling of full-length APP and APP CTFs (APP-CTF)	Aβ42 in cell-free γ-secretase assay (γ-secretase)	labeling of γ-secretase components [3]	Toxicity, based on cell morphology and XTT assay (H4Bri-C99 (CTF-3))	Aβ42 increase (H4Bri-C99 (CTF-3); 33 μM, 6 hours) [%]	labeling of APP(C100)-Flag (APP(C100)-Flag)	labeling of CTF-γ (CTF-50) (APP(C100)-Flag; peptides 5 μM, Fen-B 25 μM, 30 minutes)	labeling of Notch (C100)-Flag (Notch (C100)-Flag)
CC(C(=O)O)c1cccc(Oc2cc(Cl)cc(Cl)c2)c1 (centres unmarked) [FT-9, 2-(3-(3,5-dichlorophenoxy)phenyl)propanoic acid]	inhibits Aβ42 aggregation	did not decrease	inhibit oligomer formation	lowers Aβ42	reduce production of dimeric and trimeric Aβ species												
CC(C)(Oc1ccc(C(=O)c2ccc(Cl)cc2)cc1)C(=O)NCCCCCNC(=O)CCCCC1SCC2NC(=O)NC21 (centres unmarked) [Fen-B, N-(5-(2-(4-(4-chlorobenzoyl)phenoxy)-2-methylpropanamido)pentyl)-5-(2-oxo-hexahydro-1H-thieno[3,4-d]imidazol-4-yl)pentanamide]						did not label	efficiently labeled	efficiently labeled	preferentially label	labeled full-length APP and APP CTFs	raise Aβ42 with similar potencies	Absence of PS1, NCT, APH1, and Pen2 labeling	toxic at higher doses	~200	label a recombinant APP c-secretase substrate (APP(C100)-Flag) with similar potency	no evidence for binding to CTF-γ	less efficient than Fen-B labeling of the APP(C100)-Flag
